{"source": "patent US9023793B2", "about": "“Intranasal carbetocin formulations and methods for the treatment of autism” (Retrophin, Inc., priority 2006, dated 2015)", "key": {"[1]": {"tested_on": "rats", "experiment": "Anxiolytic effect, elevated plus-maze assay", "type": "in vivo", "experimental": "The anxiolytic effect of carbetocin and oxytocin was tested using the elevated plus-maze assay in rats as described in Holmes, A., et al., Behav. Neurosci. 115(5):1129-44, 2001. See also Sahuque, L., et al., Psychopharmacology 186(1):122-132, Berl, 2006; Carvalho, M. C., et al., Braz. Med. Biol. Res. 38(12):1857-66, 2005; and Langen, B., et al., J. Pharmacol. Exp. Ther. 314:717-724, 2005. Alprazolam, a known anxiety drug, was also included in the study. Sixty male, 6-10 week old experimentally naïve rats obtained from the Charles River laboratories were divided into six groups of ten animals each. All animals were maintained in compliance with the standards of the National Research Council and were fed certified rodent diet (Teklad, Madison, Wis.) and water ad libitum. The animals were housed in a dedicated study room with 12 hour light/12 hour dark at RT 18 to 26° C. and 30-70% humidity. Study animals were acclimated to their housing for at least 5 days prior to the first day of dosing. Routes of administration included intracerebroventricular (ICV), intraperitoneal (IP), or intramuscular (IM).\nFor the anxiolytic study, all groups were dosed by injection with formulations that contained the appropriate API in 0.9% saline solution. Alprazolam was an oral solution dosage form and diluted to the desired concentration in 0.9% saline for the anxiolytic study, Alprazolam Intensol™ Oral Solution (Concentrate) 1 mg/ml (each ml contains 1 mg Alprazolam).\nThe dosing preparations were administered once to each rat as a bolus. In the ICV administration group, test doses were administered into the lateral ventricle through a port in the already implanted ICV cannula. Testing was conducted 20 minutes after ICV and 30 minutes after IM and IP. The animals were tested for 15 minutes on the maze immediately following transport from the home cage.\nThe elevated plus maze consisted of a platform with 4 arms, two open and two closed (50×10×50 cm enclosed with an open roof). Rats were tested two at a time and placed by hand in the center of the platform of two separate mazes, at the crossroad of the 4 arms, facing one of the open arms. After fifteen minutes, the first rat was left for a few seconds until the second rat's fifteen minutes was completed. The rats were monitored remotely.\nPrior to each rat's test, the plus-maze surfaces and closed sides were cleaned. Rats were handled by gloved hands. The time from removal from the home cage to start of testing was less than 15 seconds. Rats were gently removed from the home cage and placed onto the center square between the open and closed arms, and facing the opposite open arm. The rats were facing away from the experimenter. The experimenter moved away from the maze to an area not visible to the rat(s) and viewed the rat(s) via television monitor. At the end of the test the recorder was stopped and the rat(s) removed from the maze.\nThe rats were evaluated for time spent in open arm exploration (Open Time), time spent in closed arm exploration (Closed Time) and scored for anxiety according to the percent of time spent in open arm exploration ([time spent in open arms/time spent in open arms+time spent in closed arms×100]) (Open Time %); the absolute time spent in open arm exploration; and the percent of open arm entries ([number of open arm entries/number of open arm entries+number of closed arm entries]×100). The number of total arm entries was used as a measure of overall locomotor activity. The scores were compared to the vehicle controls and to the baseline using one-way ANOVA followed by the appropriate post-hoc test (Bonferroni/Dunnets) and a p<0.05 was considered to be statistically significant."}, "[2]": {"settings": "human, in vivo, inhaled or intranasal, 150 ug", "description": "(§2) In this second clinical trial, three concentrations of carbetocin were manufactured based on the formulation disclosed in Table 38 in order to provide a carbetocin dose of 150 μg, 250 μg, and 400 μg. Blood samples for PK analysis of carbetocin and oxytocin levels were collected in EDTA coated blood collection tubes from patients. Aprotinin was immediately added and the samples were centrifuged to obtain plasma samples. Intranasal (IN) formulation of carbetocin were dosed using a 100 μl actuator in 12 healthy, human subjects at three strengths (1.5, 2.5, and 4.0 mg/ml) and compared to intramuscular (IM) dose of Duratocin® (Carbetocin Injection). An additional comparison to the commercially available version of intranasal oxytocin (Syntocinon Spray®) was also conducted. Blood samples were taken periodically between t=0 (predose) and 6 hrs."}, "[3]": {"experiment": "clinical", "settings": "human, in vivo; for AUC(0-t) / Tmax: inhaled or intranasal", "description": "In this human clinical study (cross-over, dose escalating), the intranasal (IN) formulation of carbetocin was administered (a single dose) to 12 healthy human subjects (18-65 years old) at three strengths (150, 300, and 500 μg per dose) and compared to the 50 μg dose of Duratocin® administered by intramuscular injection (IM). Blood samples were taken periodically between t=0 (predose) and 6 hrs after dosing."}, "[4]": {"settings": "in vivo; cited from earlier work"}, "[5]": {"experiment": "in vivo", "settings": "rabbit, inhaled or intranasal, 60 ug", "description": "In this Example, eight groups of rabbits were dosed with the formulations presented in Table 34; group 1 received intramuscular (IM) carbetocin injection at 30 μg dose, while the remaining 7 groups received the 60 μg doses of intranasal (IN) carbetocin nasal spray formulations.\nBriefly, in this rabbit PK study 3, Group 1 represents a control intramuscular injection; Group 2 represents a formulation used for our first human clinical study. […] In context with formulation #5, the design of this experiment is intended to further confirm the effect of CMC-LV on BA.\nFor this experiment, 25 ml of each intranasal (IN) formulation was prepared. All IN formulations were stored in 3×1 ml aliquots in 1cc amber glass bottles. Also, 400 ml of the intramuscular (IM) formulation was prepared and stored in 3×3 mL aliquots in 3 cc clear glass bottles. All formulations were stored at 2-8° C."}, "[6]": {"experiment": "clinical", "settings": "human, in vivo; for Cmax / Tmax / AUC(0-t): inhaled or intranasal", "description": "as §2"}, "[7]": {"tested_on": "tracheal/bronchial epithelial cell membrane inserts (EpiAirway)", "experiment": "Cell viability, MTT assay", "type": "cell-based", "settings": "Rabbit Pharmacokinetic Study 3 formulations", "experimental": "Cell viability was assessed using an MTT assay kit (MatTek Corp., Ashland, Mass.). MTT concentrate was thawed and diluted with media at a ratio of 2 ml MTT:8 ml media. 300 μl MTT-media mix was added to each well of a 24 well plate. Tissue culture inserts were drained and transferred to the MTT containing well and incubated at 37° C. in the dark for three hours. After incubation, each insert was removed from the plate, and then immersed in the wells of a fresh 24-well plate containing 2 ml extractant solution. The plate was then covered and incubated overnight at room temperature in the dark. The liquid in each insert was then decanted back into the well from which it was taken and the insert was discarded. 50 μl of the exractant solution from each well was then pipetted in triplicate into a 96 well plate and diluted with the addition of 150 μl of fresh extractant solution. The optical density of the samples was then measured at 550 nm on a Spectramax plate reader (Molecular Devices, Sunnyvale, Calif.) using SpectraPro software."}, "[8]": {"tested_on": "tracheal/bronchial epithelial cell membrane inserts (EpiAirway)", "experiment": "Cytotoxicity, LDH assay (apical and basolateral)", "type": "cell-based", "settings": "Rabbit Pharmacokinetic Study 3 formulations", "experimental": "(§1) 200 μl of fresh media was gently added to each tissue insert in the 24 well plate and the plate was placed no a shaker table at room temperature for 5 minutes. 150 μl of apical solution was removed from each insert and reserved for a […] dehydrogenase assay. The inserts were then washed with 300 μl of media; 300 μl of new media was added to each insert, the inserts were incubated for 20 minutes at room temperature and the transepithelial electrical resistance was measured.\nThe inserts are then transferred into a new 24 well plate containing no media and the appropriate amount of media was added to the apical surface in order to total 300 μl. The inserts were then shaken for five minutes at 100 RPM at room temperature. 50-100 μl of the apical media were then removed, placed in […] and kept at 2-8° C. until needed.\nThe samples were then centrifuged at 1000 rpm for 5 minutes. 2 μl of the supernatant was removed and added to a 96 well plate. 48 μl of media was then used to dilute the supernatant to make a 25× dilution and each sample was assayed in triplicate for LDH loss using a CytoTox 96 Cytotoixcity Assay Kit (Promega Corp., Madison, Wis.).\nFor analysis of the basolateral media, 50 μl of the reserved 150 μl solution was loaded into a 96 well assay plate and assayed in triplicate."}, "[9]": {"tested_on": "tracheal/bronchial epithelial cell membrane inserts (EpiAirway)", "experiment": "Transepithelial electrical resistance (TER)", "type": "cell-based", "settings": "Rabbit Pharmacokinetic Study 3 formulations", "experimental": "Tracheal/bronchial epithelial cell membrane inserts (EpiAirway, MatTek Corp., Ashland, Mass.) were received the day before the experiment. Each tissue insert was placed in a well of a 6 well plate which contained 0.9 ml of serum free media and cultured at 37° C. for 24 hours to allow the tissues to equilibrate. The day of the experiment, transepithelial electrical resistance measurements were taken for each insert using a Tissue Resistance Measurement Chamber connected to an Epithelial Voltohmeter (World Precision Instruments, Inc., Sarasota, Fla.).\nas §1"}, "[10]": {"settings": "IP route, tested 30 minutes after dosing"}, "[11]": {"settings": "ICV route, tested 20 minutes after dosing"}, "[12]": {"settings": "IM route, tested 30 minutes after dosing"}}, "note": "*1 amine or outer side, *2 acyl side, *3 side chain or, on linkers, in order; H or OH if unused. Where a SMILES comes first, the peptide text is derived from it. Bridges are numbered along the chain shown (N, C = ends). X1 = O=C(CCC[*:2])[*:1]"}
{"compound": "Cc1nnc2n1-c1ccc(Cl)cc1C(c1ccccc1)=NC2", "note": "[Alprazolam]", "values": [{"measurement": "Closed Time", "setting": "[1]; [10]", "value": 116.55}, {"measurement": "Open Time", "setting": "[1]; [10]", "value": 46.07}, {"measurement": "Open Time (%)", "setting": "[1]; [10]", "value": 27.9, "unit": "%"}]}
{"compound": "CC[C@H](C)[C@@H]1NC(=O)[C@H](Cc2ccc(O)cc2)NC(=O)[C@@H](N)CSSC[C@@H](C(=O)N2CCC[C@H]2C(=O)N[C@@H](CC(C)C)C(=O)NCC(N)=O)NC(=O)[C@H](CC(N)=O)NC(=O)[C@H](CCC(N)=O)NC1=O", "note": "[Oxytocin]", "values": [{"measurement": "Closed Time", "setting": "[1]; [11]", "value": 158.42}, {"measurement": "Open Time", "setting": "[1]; [11]", "value": 17.89}, {"measurement": "Open Time (%)", "setting": "[1]; [11]", "value": 11.3, "unit": "%"}, {"measurement": "Closed Time", "setting": "[1]; [12]", "value": 159.47}, {"measurement": "Open Time", "setting": "[1]; [12]", "value": 14.54}, {"measurement": "Open Time (%)", "setting": "[1]; [12]", "value": 8.6, "unit": "%"}]}
{"compound": "CC[C@H](C)[C@@H]1NC(=O)[C@H](Cc2ccc(OC)cc2)NC(=O)CCCSC[C@@H](C(=O)N2CCC[C@H]2C(=O)N[C@@H](CC(C)C)C(=O)NCC(N)=O)NC(=O)[C@H](CC(N)=O)NC(=O)[C@H](CCC(N)=O)NC1=O", "note": "[carbetocin, 1-butanoic acid-2-(O-methyl-L-tyrosine)-1-carbaoxytocin] (Y(Me)IQNCPLG-NH2; linker N-5 via X1 (inferred))", "values": [{"measurement": "AUClast", "setting": "[2]", "value": "13697 (121) min*pg/ml"}, {"measurement": "Cmax", "setting": "[3]; 150 ug", "value": 0.32, "unit": "ng/mL"}, {"measurement": "half-life", "setting": "[3]; 150 ug", "value": 33, "unit": "min"}, {"measurement": "Cmax", "setting": "[3]; 300 ug", "value": 0.43, "unit": "ng/mL"}, {"measurement": "half-life", "setting": "[3]; 300 ug", "value": 46, "unit": "min"}, {"measurement": "Cmax", "setting": "[3]; 500 ug", "value": 0.74, "unit": "ng/mL"}, {"measurement": "half-life", "setting": "[3]; 500 ug", "value": 42, "unit": "min"}, {"measurement": "bioavailability", "setting": "[3]; im, Bioavailability", "value": 6, "unit": "%"}, {"measurement": "AUC(0-t)", "setting": "[3]; 150 ug", "value": 0.2, "unit": "ng·h/mL"}, {"measurement": "AUC(0-t)", "setting": "[3]; 300 ug", "value": 0.25, "unit": "ng·h/mL"}, {"measurement": "Tmax", "setting": "[3]; 300 ug", "value": 10, "unit": "min"}, {"measurement": "AUC(0-t)", "setting": "[3]; 500 ug", "value": 0.717, "unit": "ng·h/mL"}, {"measurement": "Tmax", "setting": "[3]; 500 ug", "value": 18.6, "unit": "min"}, {"measurement": "half-life relative to that of oxytocin", "setting": "[4]", "value": "4-10 times"}, {"measurement": "F rel", "setting": "[5]", "value": "~9", "unit": "%"}, {"measurement": "bioavailability", "setting": "[6]; 150 ug", "value": 7, "unit": "%"}, {"measurement": "bioavailability", "setting": "[6]; 250 ug", "value": 6, "unit": "%"}, {"measurement": "bioavailability", "setting": "[6]; 400 ug", "value": 7, "unit": "%"}, {"measurement": "Cmax", "setting": "[6]; 150 ug", "value": 0.222, "unit": "ng/mL"}, {"measurement": "Tmax", "setting": "[6]; 150 ug", "value": 15, "unit": "min"}, {"measurement": "AUC(0-t)", "setting": "[6]; 250 ug", "value": 0.302, "unit": "ng·h/mL"}, {"measurement": "Cmax", "setting": "[6]; 250 ug", "value": 0.377, "unit": "ng/mL"}, {"measurement": "Tmax", "setting": "[6]; 250 ug", "value": 18, "unit": "min"}, {"measurement": "AUC(0-t)", "setting": "[6]; 400 ug", "value": 0.542, "unit": "ng·h/mL"}, {"measurement": "Cmax", "setting": "[6]; 400 ug", "value": 0.608, "unit": "ng/mL"}, {"measurement": "Tmax", "setting": "[6]; 400 ug", "value": 13, "unit": "min"}]}
{"compound": "Triton", "values": [{"measurement": "MTT %", "setting": "[7]", "value": 1.4, "unit": "%"}, {"measurement": "Apical LDII %", "setting": "[8]; apical", "value": 100.0, "unit": "%"}, {"measurement": "Basolateral LDH %", "setting": "[8]; basolateral", "value": 100.0, "unit": "%"}, {"measurement": "TER T = 0", "setting": "[9]; T = 0", "value": 504.4, "unit": "ohm × cm^2"}, {"measurement": "TER T = 60 min", "setting": "[9]; T = 60 min", "value": 0.2, "unit": "ohm × cm^2"}]}
